Target: FcsSBP (Fucose Solute Binding Protein)
Assay: isothermal titration calorimetry
Set-up: species or system Streptococcus pneumoniae
Details: 50 mM Tris HCl pH 7.5, 25 °C, one-site model

SMILES	Ka (crystal structure of SeMet protein)	Ka
CC(=O)N[C@H]1[C@@H](O[C@H]2[C@@H](O)[C@@H](CO)OC(O)[C@@H]2O[C@@H]2O[C@@H](C)[C@@H](O)[C@@H](O)[C@@H]2O)O[C@H](CO)[C@H](O)[C@@H]1O (some centres unmarked) [A-trisaccharide, GalNAcα1–3(Fucα1–2)Gal]	1.01 (±0.16) × 10^6	
C[C@@H]1O[C@@H](O[C@H]2C(O)O[C@H](CO)[C@H](O)[C@@H]2O[C@H]2O[C@H](CO)[C@H](O)[C@H](O)[C@H]2O)[C@@H](O)[C@H](O)[C@@H]1O (some centres unmarked) [B-trisaccharide, Galα1–3(Fucα1–2)Gal]		1.15 (±0.27) × 10^6

From PMC2911475 (Journal of molecular biology, 2009)
